Experimental data: US8163724B2, “Glucocorticosteroids, processes for their preparation, pharmaceutical compositions containing them and their use in therapy” (AstraZeneca AB, priority 2007, dated 2012)
Where two headings read alike, the source gives them in different places.

Target: T1, recombinant human GR (Homo sapiens, UniProt P04150)
T1 construct: purchased Panvera/Invitrogen P2812 (kit P2893)
T1 sequence (P04150 1-777): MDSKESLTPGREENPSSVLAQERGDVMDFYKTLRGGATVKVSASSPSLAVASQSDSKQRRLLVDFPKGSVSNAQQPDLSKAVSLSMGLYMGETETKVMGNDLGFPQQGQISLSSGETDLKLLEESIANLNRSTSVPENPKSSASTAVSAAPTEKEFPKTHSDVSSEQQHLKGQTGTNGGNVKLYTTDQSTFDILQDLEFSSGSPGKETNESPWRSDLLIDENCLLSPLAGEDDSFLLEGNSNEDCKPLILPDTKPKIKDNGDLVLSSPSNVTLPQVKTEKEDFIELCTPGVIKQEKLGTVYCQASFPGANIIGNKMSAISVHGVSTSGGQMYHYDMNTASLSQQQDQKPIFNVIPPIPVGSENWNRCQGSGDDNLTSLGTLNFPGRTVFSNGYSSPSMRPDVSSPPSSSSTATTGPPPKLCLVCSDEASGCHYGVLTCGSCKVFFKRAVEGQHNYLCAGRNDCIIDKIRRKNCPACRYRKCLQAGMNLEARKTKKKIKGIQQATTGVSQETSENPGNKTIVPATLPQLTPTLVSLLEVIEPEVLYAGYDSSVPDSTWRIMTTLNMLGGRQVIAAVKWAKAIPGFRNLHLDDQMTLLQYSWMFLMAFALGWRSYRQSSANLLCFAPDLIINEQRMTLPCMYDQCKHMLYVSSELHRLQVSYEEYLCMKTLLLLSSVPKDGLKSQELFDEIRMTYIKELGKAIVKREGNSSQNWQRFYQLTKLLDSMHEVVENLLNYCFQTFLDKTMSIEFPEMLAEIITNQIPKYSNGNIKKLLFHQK
Test: Human Glucocorticoid Receptor (GR) Assay (fluorescence polarization, Panvera/Invitrogen kit)
Assay type: binding
Method in brief: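 Fluorescence polarization competition with recombinant GR and GS Red fluorescent ligand plus stabilizing peptide and DTT in potassium phosphate/sodium molybdate/EDTA buffer with DMSO. Incubated 2 hours at room temperature in the dark; 0% control DMSO, 100% control 10 μM dexamethasone.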

[1] = fluorescence polarization, GS Red tracer, 2 hours at room temperature, 100% control 10 μM Dexamethasone, read-out: Inhibition of GR binding, IC50

| Structure (SMILES) | IC50 [1] | IC50 |
| --- | --- | --- |
| C[C@]12Cc3cnn(-c4ccc(F)cc4)c3C=C1CC[C@@H]1[C@@H]2[C@@H](O)C[C@@]2(C)[C@H]1CC[C@]2(OC(=O)C1CCCO1)C(=O)SCF (stereo partly drawn) [Example 137, (1R,3aS,3bS,10aR,10bS,11S,12aS)-1-{[(Fluoromethyl)sulfanyl]carbonyl}-7-(4-fluorophenyl)-11-hydroxy-10a,12a-dimethyl-1,2,3,3a,3b,4,5,7,10a,10b,11,12,12a-tetradecahydrocyclopenta[5,6]naphtho[1,2-f]indazol-1-yl (2R)-tetrahydrofuran-2-carboxylate] | 2.8 nM | – |
| Cc1cc(C(=O)O[C@]2(C(=O)SCC#N)CC[C@H]3[C@@H]4CCC5=Cc6c(cnn6-c6ccc(F)cc6)C[C@]5(C)[C@H]4[C@@H](O)C[C@@]32C)no1 [Example 116, (1R,3aS,3bS,10aR,10bS,11S,12aS)-1-{[(Cyanomethyl)sulfanyl]carbonyl}-7-(4-fluorophenyl)-11-hydroxy-10a,12a-dimethyl-1,2,3,3a,3b,4,5,7,10,10a,10b,11,12,12a-tetradecahydrocyclopenta[5,6]naphtho[1,2-f]indazol-1-yl 5-methylisoxazole-3-carboxylate] | 6.9 nM | – |
| CCSC(=O)[C@@]1(OC(=O)c2scnc2C)CC[C@H]2[C@@H]3CCC4=Cc5c(cnn5-c5ccc(F)cc5)C[C@]4(C)[C@H]3[C@@H](O)C[C@@]21C [Example 3, (1R,3aS,3bS,10aR,10bS,11S,12aS)-1-[(Ethylthio)carbonyl]-7-(4-fluorophenyl)-11-hydroxy-10a,12a-dimethyl-1,2,3,3a,3b,4,5,7,10,10a,10b,11,12,12a-tetradecahydrocyclopenta[5,6]naphtho[1,2-f]indazol-1-yl 4-methyl-1,3-thiazole-5-carboxylate] | 15 nM | – |
| COCCCSC(=O)[C@@]1(OC(=O)c2ccco2)CC[C@H]2[C@@H]3CCC4=Cc5c(cnn5-c5ccc(F)cc5)C[C@]4(C)[C@H]3[C@@H](O)C[C@@]21C [Example 85, (1R,3aS,3bS,10aR,10bS,11S,12aS)-7-(4-Fluorophenyl)-11-hydroxy-{[(3-methoxypropyl)sulfanyl]carbonyl}-10a,12a-dimethyl-1,2,3,3a,3b,4,5,7,10,10a,10b,11,12,12a-tetradecahydrocyclopenta[5,6]naphtho[1,2-f]indazol-1-yl furan-2-carboxylate] | 6.3 nM | – |
| CSC(=O)[C@@]1(OC(=O)C2CC2)CC[C@H]2[C@@H]3CCC4=Cc5c(cnn5-c5ccc(F)nc5)C[C@]4(C)[C@H]3[C@@H](O)C[C@@]21C [Example 153, (1R,3aS,3bS,10aR,10bS,11S,12aS)-7-(6-Fluoropyridin-3-yl)-11-hydroxy-10a,12a-dimethyl-1-[(methylsulfanyl)carbonyl]-1,2,3,3a,3b,4,5,7,10,10a,10b,11,12,12a-tetradecahydrocyclopenta[5,6]naphtho[1,2-f]indazol-1-yl cyclopropanecarboxylate] | 2.4 nM | – |
| Cc1occc1C(=O)O[C@]1(C(=O)SCCO)CC[C@H]2[C@@H]3CCC4=Cc5c(cnn5-c5ccc(F)cc5)C[C@]4(C)[C@H]3[C@@H](O)C[C@@]21C [Example 55, (1R,3aS,3bS,10aR,10bS,11S,12aS)-7-(4-Fluorophenyl)-11-hydroxy-1-{[(2-hydroxy-ethyl)thio]carbonyl}-10a,12a-dimethyl-1,2,3,3a,3b,4,5,7,10,10a,10b,11,12,12a-tetradecahydrocyclopenta[5,6]naphtho[1,2-f]indazol-1-yl 2-methylfuran-3-carboxylate] | – | 7 nM |
| COC1(C(=O)O[C@]2(C(=O)SCC#N)CC[C@H]3[C@@H]4CCC5=Cc6c(cnn6-c6ccc(F)cc6)C[C@]5(C)[C@H]4[C@@H](O)C[C@@]32C)CC1 [Example 135, (1R,3aS,3bS,10aR,10bS,11S,12aS)-1-{[(Cyanomethyl)sulfanyl]carbonyl}-7-(4-fluorophenyl)-11-hydroxy-10a,12a-dimethyl-1,2,3,3a,3b,4,5,7,10,10a,10b,11,12,12a-tetradecahydrocyclopenta[5,6]naphtho[1,2-f]indazol-1-yl 1-methoxycyclopropanecarboxylate] | 7.6 nM | – |
| CCC(=O)O[C@]1(C(=O)SCF)CC[C@H]2[C@@H]3CCC4=Cc5c(cnn5-c5ccc(F)cc5)C[C@]4(C)[C@@]3(F)[C@@H](O)C[C@@]21C [Example 200, (1R,3aS,3bS,10aS,10bR,11S,12aS)-1-{[(Fluoromethyl)sulfanyl]carbonyl}-10b-fluoro-7-(4-fluorophenyl)-11-hydroxy-10a,12a-dimethyl-1,2,3,3a,3b,4,5,7,10,10a,10b,11,12,12a-tetradecahydrocyclopenta[5,6]naphtho[1,2-f]indazol-1-yl propanoate] | 14 nM | – |
| Cc1ncsc1C(=O)O[C@]1(C(=O)SCC#N)CC[C@H]2[C@@H]3CCC4=Cc5c(cnn5-c5ccc(F)cc5)C[C@]4(C)[C@H]3[C@@H](O)C[C@@]21C [Example 2, (1R,3aS,3bS,10aR,10bS,11S,12aS)-1-{[(Cyanomethyl)thio]carbonyl}-7-(4-fluorophenyl)-11-hydroxy-10a,12a-dimethyl-1,2,3,3a,3b,4,5,7,10,10a,10b,11,12,12a-tetradecahydrocyclopenta[5,6]naphtho[1,2-f]indazol-1-yl 4-methyl-1,3-thiazole-5-carboxylate] | 7.4 nM | – |
| C[C@]12Cc3cnn(-c4ccc(F)cc4)c3C=C1CC[C@@H]1[C@@H]2[C@@H](O)C[C@@]2(C)[C@H]1CC[C@]2(OC(=O)c1ccco1)C(=O)OCC#N [Example 65, Cyanomethyl(1R,3aS,3bS,10aR,10bS,11S,12aS)-7-(4-fluorophenyl)-1-[(furan-2-ylcarbonyl)oxy]-11-hydroxy-10a,12a-dimethyl-1,2,3,3a,3b,4,5,7,10,10a,10b,11,12,12a-tetradecahydrocyclopenta[5,6]naphtho[1,2-f]indazole-1-carboxylate] | 2.6 nM | – |
| C[C@]12Cc3cnn(-c4ccc(F)cc4)c3C=C1CC[C@@H]1[C@@H]2[C@@H](O)C[C@@]2(C)[C@H]1CC[C@]2(OC(=O)c1ccco1)C(=O)SCCO [Example 91, (1R,3aS,3bS,10aR,10bS,11S,12aS)-7-(4-fluorophenyl)-11-hydroxy-1-{[(2-hydroxyethyl)sulfanyl]carbonyl}-10a,12a-dimethyl-1,2,3,3a,3b,4,5,7,10,10a,10b,11,12,12a-tetradecahydrocyclopenta[5,6]naphtho[1,2-f]indazol-1-yl furan-2-carboxylate] | 3.7 nM | – |
| C[C@]12Cc3cnn(-c4ccc(F)cc4)c3C=C1CC[C@@H]1[C@@H]2[C@@H](O)C[C@@]2(C)[C@H]1CC[C@]2(OC(=O)C1CCOCC1)C(=O)SCCO [Example 127, (1R,3aS,3bS,10aR,10bS,11S,12aS)-7-(4-Fluorophenyl)-11-hydroxy-1-{[(2-hydroxyethyl)sulfanyl]carbonyl}-10a,12a-dimethyl-1,2,3,3a,3b,4,5,7,10,10a,10b,11,12,12a-tetradecahydrocyclopenta[5,6]naphtho[1,2-f]indazol-1-yl tetrahydro-2H-pyran-4-carboxylate] | 3.7 nM | – |
| CSCSC(=O)[C@@]1(OC(C)=O)CC[C@H]2[C@@H]3CCC4=Cc5c(cnn5-c5ccc(F)cc5)C[C@]4(C)[C@H]3[C@@H](O)C[C@@]21C [Example 118, (1R,3aS,3bS,10aR,10bS,11S,12aS)-7-(4-Fluorophenyl)-11-hydroxy-10a,12a-dimethyl-1-({[(methylsulfanyl)methyl]sulfanyl}carbonyl)-1,2,3,3a,3b,4,5,7,10,10a,10b,11,12,12a-tetradecahydrocyclopenta[5,6]naphtho[1,2-f]indazol-1-yl acetate] | 18 nM | – |
| C[C@]12Cc3cnn(-c4ccc(F)cc4)c3C=C1CC[C@@H]1[C@@H]2[C@@H](O)C[C@@]2(C)[C@H]1CC[C@]2(OC(=O)c1ccco1)C(=O)SCC(N)=O [Example 90, (1R,3aS,3bS,10aR,10bS,11S,12aS)-1-{[(2-Amino-2-oxoethyl)sulfanyl]carbonyl}-7-(4-fluorophenyl)-11-hydroxy-10a,12a-dimethyl-1,2,3,3a,3b,4,5,7,10,10a,10b,11,12,12a-tetradecahydrocyclopenta[5,6]naphtho[1,2-f]indazol-1-yl furan-2-carboxylate] | 4.6 nM | – |
| COCSC(=O)[C@@]1(OC(=O)C2CC2)CC[C@H]2[C@@H]3CCC4=Cc5c(cnn5-c5ccc(F)nc5)C[C@]4(C)[C@H]3[C@@H](O)C[C@@]21C [Example 154, (1R,3aS,3bS,10aR,10bS,11S,12aS)-7-(6-Fluoropyridin-3-yl)-11-hydroxy-1-{[(methoxymethyl)sulfanyl]carbonyl}-10a,12a-dimethyl-1,2,3,3a,3b,4,5,7,10,10a,10b,11,12,12a-tetradecahydrocyclopenta[5,6]naphtho[1,2-f]indazol-1-yl cyclopropanecarboxylate] | 5.9 nM | – |
